Data on 11 compounds can be found in PMC9369794 (Molecules, 2022).

A short description of data set [1]: FRAP assay for the antioxidant capacity. The note with it: stock in THF, acetate buffer pH 3.0, 37 °C, 15 min; ratio of slopes to trolox (melatonin in EtOH). More on the design: key to FRAP: slope of concentration-absorbance line divided by Trolox slope. On the procedure:
In the FRAP method the antioxidant reduces Fe^3+ to Fe^2+ in an acidic medium. These experiments were performed in an acetate buffer of pH 3.0, the stock solutions of the examined antioxidants were prepared in THF. The antioxidant capacities were compared to that of Trolox as a standard, just like in the ABTS assays.
A modified literature process was used. The FRAP reagent should also be prepared freshly each day. 2,4,6-Tris(2-pyridyl)-s-triazin (TPTZ) was dissolved in a 200 mM HCl solution and diluted with water to get a final 40 mM HCl and 10 mM TPTZ concentration. For the preparation of the FRAP reagent 30 mL of 20 mM FeCl3 solution and 30 mL of 10 mM TPTZ solution were mixed, and 300 mL of 300 mM acetate buffer with pH 3.0 was added (a pH lower than usual was used to avoid the precipitation of the TPTZ). The FRAP reagent was incubated at 37 °C for 15 min. 150 μL of antioxidant dissolved in THF was mixed with 2.85 mL FRAP reagent solution, and incubated at 37 °C for 15 min in dark. Measurements were carried out at each antioxidant concentration (0, 7.5; 10; 12.5; 15; 17.5 μM final concentration) in triplicate. In the 0 μM solution the antioxidant solution was substituted with acetate buffer (pH 3.0). The FRAP was determined at 600 nm: the absorbance values were plotted as a function of concentration of the sample compounds and that of Trolox for the standard reference data. The FRAP values were calculated as in the ABTS assays, i.e., the slope of the concentration-absorbance lines for the carotenoid derivatives was divided by that for the trolox.

Data set [2] can be described thus: TEAC assay using ABTS radical. The conditions noted are these: 6 min, ratio of slopes to trolox (melatonin dissolved in EtOH); for TEAC from DMSO: stock in DMSO diluted with PBS pH 7.4, 37 °C; for TEAC from THF: stock in THF diluted with PBS pH 7.4, 37 °C. On the procedure:
This method uses a redox reaction between ABTS^•+ radical cation and the examined antioxidants, which act as the reducing agents. […] As the carotenoids and the conjugates are poorly soluble in water, they were dissolved first either in small amounts of freshly distilled tetrahydrofuran (THF) or in dimethylsulfoxide (DMSO), and these stock solutions were diluted with phosphate-buffered saline (PBS) to the final nominal concentration.
The TEAC values were determined in isotonic phosphate buffer of pH 7.4. The buffer solution was made by dissolving 9.55 g of DPBS powder in distilled water to form 1L of solution (composition: 0.138 M NaCl, 0.0027 M KCl, 0.0081 M Na2HPO4, 0.0015 M KH2PO4). The assay was performed according to a literature process with slight modifications. The ABTS^•+ radical cation was produced by reacting 7 mM 2,2′-azino-bis(3-ethylbenzothiazoline-6-sulfonic acid) and 2.45 mM potassium persulfate in water. The stock ABTS^•+ solution was prepared 12–16 h before the experiments, and stored at room temperature in dark. The absorbance of the ABTS^•+ solution was set to 0.70 ± 0.05 at 734 nm by a ca. 100-fold dilution with phosphate-buffered saline (PBS). […] The stock solutions were diluted with PBS such that equal amounts of the diluted solutions were added to the ABTS^•+ reagent to obtain final antioxidants concentrations of 0.3125, 0.625, 1.25, 2.50, 3.75, 5 μM, respectively. In the blank (0 μM), the solutions of the antioxidants were substituted with THF or DMSO.
The antioxidants were incubated with ABTS^•+ solution at 37 °C for 6 min. During the reaction of ABTS^•+ with the antioxidants the absorbance of the solution decreases. The percentage inhibition of absorbance at 734 nm was calculated as (A0 − Aantioxidant)/A0, where A0 is the absorbance of the ABTS^•+ solution and Aantioxidant is the absorbance measured after the addition of the antioxidant. The determinations were carried out at each concentration in triplicate. The calculated values were plotted against the final concentration of the antioxidants. The slopes of the curves were compared with that for trolox, the TEAC value is the ratio of the slopes for the antioxidant and for trolox.

Data set [3] is described as follows: Hydrodynamic diameter and colloidal stability of aggregates by dynamic light scattering. Type of data set: physicochemical. The note with it: for mean size (hydrodynamic diameter) / zeta potential: 37 °C; for PDI: sd^2/mean size^2. The method, then: In contrary, all spectra gave a hypsochromic shift and loss of fine-structure when the DMSO solutions were diluted with PBS, which refers to the formation of H-type (card-pack) aggregates (Figures S1–S12). Since DMSO-containing aqueous systems are more suitable for biological studies, we examined these solution by dynamic light scattering (DLS) spectroscopy to gain more information about the particles. The concentrations of the examined solutions were the same as used in the ABTS/TEAC measurements (0.3125–5.00 μM, see next section).
Size determination of aggregates and the colloidal stability of the sample dispersions were determined by dynamic light scattering measurements, where the hydrodynamic diameter of particles, and zeta potential values were collected. The number-weighted size distribution indicated one main peak in each case, the polydispersity index (PDI) was calculated as sd^2/mean size^2. For the particle size analysis Malvern Zetasizer Nano S instrument and for the zeta potential determination Malvern Zetasizer Nano Z instrument were used (Malvern Panalytical Ltd., Great Malvern, Worcestershire, UK). The measurements were carried out in autocorrelation mode, and the following parameters were kept constant: scattering angle 173°, attenuator 11 and its factor 0.0146, measurement position 4.65 mm. The concentrations of sample dispersions were between 0.3125 and 5 µM. The dispersion medium was PBS. Each samples was examined after 6 min incubation period at 37 °C.

Data set [4] in a line: Study of aggregation by UV-Vis spectrophotometry. The data set is classed as physicochemical. An excerpt:
It has been known for a long while that carotenoids or their derivatives can be prone to supramolecular organization in water or water-organic solvent mixtures. This behaviour is especially interesting because this higher organization can modulate or alter biological properties of carotenoids, as well [40]. A tendency to form supramolecular structures can be tested by recording the UV spectra in an organic solvent and increasing the ratio of water in the sample. […] We have some recent experience of such behaviour of carotenoid-flavonoid conjugates.
All of our adducts were tested with the method above using tetrahydrofurane (THF) or dimethylsulfoxide (DMSO) with increasing ratio of phosphate-buffered saline (PBS), which was the medium of the antioxidant measurements. […]
1. Study of Aggregation by UV-Vis Spectrophotometry
Starting from THF solutions: each conjugate was dissolved in freshly distilled THF and the solutions were diluted
either with THF or THF-PBS mixtures to obain final solutions of identical carotenoid concentration. […]
Figure S1. UV-spectra of 8’-apo-β-carotenol succinate ( 6) ( a) in THF and in THF-PBS mixtures ( 1:1 , 1:3); (b) in DMSO
Figure S2. UV-spectra of zeaxanthin bissuccinate ( 7) ( a) in THF and in THF-PBS mixtures ( 1:1 , 1:3); (b) in DMSO and
Figure S3. UV-spectra of zeaxanthin monosuccinate ( 11) ( a) in THF and in THF-PBS mixtures ( 1:1 , 1:3); (b) in DMSO […]

Setting [5] is: 0.3125 μM in PBS from DMSO stock.
Setting [6] is: 0.625 μM in PBS from DMSO stock.

Counter-ions that a name gives are not always drawn.

`CC1=C(/C=C/C(C)=C/C=C/C(C)=C/C=C/C=C(C)/C=C/C=C(\C)COC(=O)CCC(=O)O)C(C)(C)CCC1` (as salt: succinate) [Compound 6, 8′-Apo-β-carotenol succinate] gave a melting point of 123 to 124 °C.

In the case of `CC1=C(/C=C/C(C)=C/C=C/C(C)=C/C=C/C=C(C)/C=C/C=C(C)/C=C/C2=C(C)C[C@@H](OC(=O)CCC(=O)O)CC2(C)C)C(C)(C)C[C@H](OC(=O)CCC(=O)O)C1` (as salt: succinate) [Compound 7, Zeaxanthin bissuccinate], the melting point was 152 to 153 °C.

For `CC1=C(/C=C/C(C)=C/C=C/C(C)=C/C=C/C=C(C)/C=C/C=C(C)/C=C/C2=C(C)C[C@@H](OC(=O)CCC(=O)O)CC2(C)C)C(C)(C)CCC1` (as salt: succinate) [Compound 8, β-Cryptoxanthin succinate], the melting point is 142 to 143 °C.

`CC1=C(/C=C/C(C)=C/C=C/C(C)=C/C=C/C=C(C)/C=C/C=C(C)/C=C/C(=O)[C@]2(C)C[C@@H](OC(=O)CCC(=O)O)CC2(C)C)C(C)(C)C[C@H](OC(=O)CCC(=O)O)C1` (as salt: succinate) [Compound 9, Capsanthin bissuccinate] gave a melting point of 143 to 144 °C.

Regarding `CC1=C[C@H](OC(=O)CCC(=O)O)CC(C)(C)[C@H]1/C=C/C(C)=C/C=C/C(C)=C/C=C/C=C(C)/C=C/C=C(C)/C=C/C1=C(C)C[C@@H](OC(=O)CCC(=O)O)CC1(C)C` (as salt: succinate) [Compound 10, Lutein bissuccinate], the melting point was in the range of 148 to 149 °C.

As to `CC1=C(/C=C/C(C)=C/C=C/C(C)=C/C=C/C=C(C)/C=C/C=C(\C)C=O)C(C)(C)CCC1` [8'-Apo-β-carotenal, 8′-apo-β-carotenal, reference compound], in data set [1], the FRAP is given as 0.443. In addition, in data set [2], the “TEAC from DMSO” value turned out to be 1.19 and the “TEAC from THF” value came out at 0.953.

Consider `CC1=C(/C=C/C(C)=C/C=C/C(C)=C/C=C/C=C(C)/C=C/C=C(C)/C=C/C2=C(C)C[C@@H](O)CC2(C)C)C(C)(C)C[C@H](O)C1` [Compound 2, zeaxanthin, reference compound], for which the FRAP in data set [1] was 0.351. In data set [2], the “TEAC from DMSO” value amounted to 2.70 and the “TEAC from THF” value is recorded as 2.016.

`CC1=C(/C=C/C(C)=C/C=C/C(C)=C/C=C/C=C(C)/C=C/C=C(C)/C=C/C2=C(C)C[C@@H](O)CC2(C)C)C(C)(C)CCC1` [Compound 3, cryptoxanthin, reference compound]: in data set [1], the FRAP was found to be 0.441. Besides, in data set [2], the “TEAC from DMSO” value stood at 1.61 and the “TEAC from THF” value is listed as 2.062.

Consider `CC1=C(/C=C/C(C)=C/C=C/C(C)=C/C=C/C=C(C)/C=C/C=C(C)/C=C/C(=O)[C@]2(C)C[C@@H](O)CC2(C)C)C(C)(C)C[C@H](O)C1` [Compound 4, capsanthin, reference compound], for which the FRAP in data set [1] was 0.197. Also, in data set [2], the “TEAC from DMSO” value is given as 0.62 and the “TEAC from THF” value is 1.036.

Consider `CC1=C[C@H](O)CC(C)(C)[C@H]1/C=C/C(C)=C/C=C/C(C)=C/C=C/C=C(C)/C=C/C=C(C)/C=C/C1=C(C)C[C@@H](O)CC1(C)C` [Compound 5, lutein, reference compound], for which the FRAP in data set [1] was found to be 0.161. Also, in data set [2], the “TEAC from DMSO” value was 1.02 and the “TEAC from THF” value turned out to be 1.571.

In turn, `COc1ccc2[nH]cc(CCNC(=O)CNC(=O)CCC(=O)O[C@@H]3CC(C)=C(/C=C/C(C)=C/C=C/C(C)=C/C=C/C=C(C)/C=C/C=C(C)/C=C/C4=C(C)C[C@@H](O)CC4(C)C)C(C)(C)C3)c2c1` [Compound 13, Zeaxanthin-monomelatonin conjugate] yielded a melting point of 156 to 157 °C. In data set [3] (setting [5]), the “mean size (hydrodynamic diameter)” value stood at 388.20 nm and the zeta potential was 16.0 mV. Also, the PDI in data set [3] (0.3125 μM in PBS) is on record as 0.0336. Also, in data set [3] (setting [6]), the “mean size (hydrodynamic diameter)” value stood at 551.20 nm and the zeta potential came out at 15.4 mV. Also, the PDI in data set [3] (0.625 μM in PBS) was 0.0410. In addition, in data set [3] (1.25 μM in PBS from DMSO stock), the “mean size (hydrodynamic diameter)” value came out at 364.50 nm and the zeta potential stood at 2.2 mV. In addition, in data set [3] (1.25 μM in PBS), the PDI is 0.0270. For the same compound, in data set [3] (2.5 μM in PBS from DMSO stock), the “mean size (hydrodynamic diameter)” value was 638.90 nm and the zeta potential came to 2.2 mV. Further, the PDI in data set [3] (2.5 μM in PBS) came to 0.0217. In data set [3] (3.75 μM in PBS from DMSO stock), the “mean size (hydrodynamic diameter)” value worked out at 79.01 nm and the zeta potential is reported as 0.7 mV. Also, the PDI in data set [3] (3.75 μM in PBS) came to 0.0112. In data set [3] (5 μM in PBS from DMSO stock), the “mean size (hydrodynamic diameter)” value was 565.30 nm and the zeta potential turned out to be 1.1 mV. Also, the PDI in data set [3] (5 μM in PBS) was determined as 0.0311. The “hydrodynamic diameter of the aggregates” value in data set [3] (over the concentrations 0.3125–5.00 μM) is 400–600 nm. Also, in data set [4] (from THF:aqueous solutions), the “type of aggregates formed” value is “J-type (head-to-tail) aggregates”. In addition, in data set [4] (starting from THF solutions), the “change of UV spectrum with increasing ratio of PBS” value was “bathochromic shift”. Also, in data set [1], the FRAP is listed as 0.152. In addition, in data set [2], the “TEAC from DMSO” value is listed as 1.34 and the “TEAC from THF” value came to 1.434.
